The values below come from patent US10828301B2, “2,4-pyrimidinediamine compounds and their uses” (Rigel Pharmaceuticals, Inc, priority 2002, dated 2020).

In data set [1] the test system is basophils in whole human peripheral blood. The data set is described as follows: Basophil IgE activation: histamine release assay. It counts as cell-based. The conditions noted are these: Homo sapiens, anti-IgE activation. In short, it runs like this: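 Dextran-sedimented whole blood from dust-mite-allergic human donors, resuspended in MT-buffer with 0.5% DMSO and preincubated with 8 compound concentrations in triplicate. Cells stimulated 30 min at 37 °C. Histamine released into the supernatant measured by ELISA.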

For data set [2], the system named is bone marrow derived mast cells (BMMC). The data set is described as follows: BMMC high cell density IgE activation: degranulation (hexosiminidase, histamine), leukotriene (LTC4) and cytokine (TNFalpha, IL-6) assays. It counts as cell-based. Conditions: Mus musculus, anti-IgE activation, hexosaminidase release, read-out: BMMC anti-IgE hexos IC50.
Data set [3] concerns IgE-induced degranulation of tissue mast cells. The data set is described as follows: Mouse model of passive cutaneous anaphylaxis (PCA). It counts as in vivo. The conditions noted are these: mouse, in vivo. In short, it runs like this:
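Dye extravasation (Evans blue, formamide-extracted, absorbance 620 nm) was the read-out of vascular permeability after i.v. HSA-DNP challenge.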

Data set [4] concerns the target FcγRI receptor-mediated degranulation. Put plainly: FcγRI-mediated degranulation (activation with anti-human IgG Fab fragment). Conditions: cells not primed with IgE, activated with rabbit anti-human IgG Fab fragment.
Data set [5] deals with proteins downstream of Syk kinase and LYN kinase in activated CHMC cells. Put plainly: Phosphorylation of proteins in the FcεRI signal transduction cascade in activated CHMC cells. It counts as cell-based, human. The conditions noted are these: FIG. 10.
The subject of data set [6] is CHMC cells. The data set is described as follows: anti-IgE-induced calcium ion flux in CHMC cells. It counts as cell-based, human. Conditions: 10 μM compound.
The format of data set [7] is in vivo. Conditions: 14-day repeat-dose; intranasal in rabbits and primates, oral in mice and rats.
The test system of data set [8] is CHMC cells. The data set is described as follows: ionomycin-induced calcium ion flux in CHMC cells. It counts as cell-based, human. The conditions noted are these: 10 μM compound.
Data set [9] has as its system basophils in whole human peripheral blood. The data set is described as follows: Basophil dustmite activation: histamine release assay. It counts as cell-based. The conditions noted are these: read-out: Basophils Dust mite Histmine IC50. The method, then: The basophil activation assay was carried out using whole human peripheral blood from donors allergic to dust mites with the majority of the red blood cells removed by dextran sedimentation. Human peripheral blood was mixed 1:1 with 3% dextran T500 and RBCs were allowed to settle for 20-25 min. The upper fraction was diluted with 3 volumes of D-PBS and cells were spun down for 10 min at 1500 rpm, RT. Supernatant was aspirated and cells were washed in an equal volume MT-buffer. Finally, cells were resuspended in MT-buffer containing 0.5% DMSO in the original blood volume. 80 uL cells were mixed with 20 uL compound in the presence of 0.5% DMSO, in triplicate, in a V-bottom 96-well tissue culture plate. A dose range of 8 compound concentrations was tested resulting in a 10-point dose response curve including maximum (stimulated) and minimum (unstimulated) response. […] The cells were stimulated for 30 minutes at 37° C., 5% CO2. […] The ELISA was performed according to supplier's instructions.

Another data set has as its target Syk kinase (Homo sapiens (Human), UniProt P43405). The data set is described as follows: Isolated Syk kinase biochemical assay (phosphorylation of a peptide or endogenous substrate). The conditions noted are these: increasing concentrations, FIG. 8.
Data set [10] concerns FcεR1-mediated degranulation in mast cells. The data set is described as follows: FcεRI-mediated (anti-IgE induced) degranulation assay in mast cells. It counts as cell-based. Conditions: Mast cell; range stated for the whole listed group of compounds; read-out: inhibition of FcεR1-mediated degranulation in mast cells (IC50s).

As to `Fc1cnc(Nc2ccc3c(c2)OCCO3)nc1Nc1ccc2c(c1)OCCO2` [Compound R926109, N2,N4-Bis(3,4-ethylenedioxyphenyl)-5-fluoro-2,4-pyrimidinediamine], the IC50 in data set [1] came to 0.15 µM; in data set [2], 0.6 µM. Further, the “inhibition of the PCA response / FcεR-mediated vascular leakage (in words)” value in data set [3] is “dose-dependent inhibition”.
`COc1ccc(Nc2ncc(F)c(Nc3cccc(O)c3)n2)cc1OC` [Compound R926113, N2-(3,4-Dimethoxyphenyl)-5-fluoro-N4-(3-hydroxyphenyl)-2,4-pyrimidinediamine]: the IC50 is 0.27 µM in [1] and 0.65 µM in data set [2].
With `Oc1cccc(Nc2ncc(F)c(Nc3cccc(O)c3)n2)c1` [Compound R921218, N2,N4-Bis(3-hydroxyphenyl)-5-fluoro-2,4-pyrimidinediamine], the IC50 is 0.24 µM in data set [1], 0.302 µM in data set [9] and 0.03 to 1.65 µM in [10]. In data set [4], the “inhibition of FcγRI-mediated degranulation” value is listed as “inhibit FcγRI-mediated degranulation”. For the same compound, the “phosphorylation of proteins downstream of Syk kinase in the FcεRI signal transduction cascade” value in [5] is recorded as “inhibit phosphorylation”. For the same compound, in the data set with CHMC cells [6], the “anti-IgE-induced Ca2+ flux” value was “inhibited anti-IgE-induced Ca^2+ flux”. Further, in [7], the dose limiting toxicity entry is reported as “no dose limiting toxicity”. For the same compound, in the data set with CHMC cells [8], the “ionomycin-induced Ca2+ flux” value is given as “no effect on ionomycin-induced Ca^2+ flux”. The “Syk kinase phosphorylation of an endogenous substrate (LAT) and a peptide substrate” value on Syk kinase is reported as “dose responsive inhibition”. For the same compound, in [3], the “inhibition of the PCA response / FcεR-mediated vascular leakage (in words)” value was “dose-dependent inhibition”.
